Laboratory results reported in ChEMBL document CHEMBL1201862, “PubChem BioAssay data set” (2004).
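1) Cells in 96-well plates. 2) Compound, 48 h, 5 concentrations. 3) Linear interpolation between surrounding doses. 4) Unreached endpoint = highest concentration. Here, GI50 denotes the concentration required for 50% inhibition of growth.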 Activity calls are given as the source filed them. Rule as the data show it: active = GI50 up to about 1.1 µM and inactive = higher.

Experiments:
Experiment in all cases: DTP human tumour cell line panel, 48 h
A498 = test system: A498
A549 = test system: A549
COLO 205 = test system: COLO 205
HCC 2998 = test system: HCC 2998
HT-29 = test system: HT-29
Malme-3M = test system: Malme-3M
NCI-H460 = test system: NCI-H460
NCI-H522 = test system: NCI-H522
RPMI-8226 = test system: RPMI-8226
SF-539 = test system: SF-539
SK-MEL-2 = test system: SK-MEL-2
SK-MEL-5 = test system: SK-MEL-5
SN12C = test system: SN12C
SNB-75 = test system: SNB-75
SR = test system: SR
U-251 = test system: U-251
UACC-62 = test system: UACC-62
UO-31 = test system: UO-31
HL-60 = test system: HL-60

Measured: GI50

Cc1c(C(=O)CC(=O)C(=O)Nc2cc(Cl)ccc2Cl)[n+]([O-])c2ccccc2[n+]1[O-]
inactive: A498 > 100 µM | A549 40.1 µM | COLO 205 31.4 µM | HCC 2998 37.7 µM | HT-29 28.5 µM | Malme-3M 43.6 µM | NCI-H460 37 µM | NCI-H522 23.1 µM | RPMI-8226 21.7 µM | SF-539 47.8 µM | SK-MEL-2 37.9 µM | SK-MEL-5 32.6 µM | SN12C 36.8 µM | SNB-75 33.6 µM | SR 28.4 µM | U-251 34.8 µM | UACC-62 19.5 µM | UO-31 > 100 µM

CCC(=O)c1c(NOC2OCC(OC(C)=O)C(OC(C)=O)C2OC(C)=O)nc(OC)n(C)c1=O (stereo not given)
inactive: A498 > 100 µM | A549 > 100 µM | COLO 205 > 100 µM | HCC 2998 > 100 µM | HL-60 > 100 µM | HT-29 > 100 µM | Malme-3M > 100 µM | NCI-H460 > 100 µM | RPMI-8226 > 100 µM | SF-539 > 100 µM | SK-MEL-5 > 100 µM | SN12C > 100 µM | SNB-75 > 100 µM | SR > 100 µM | U-251 > 100 µM | UACC-62 > 100 µM | UO-31 > 100 µM

CCCCCCC1=NOC(C(c2cc[nH]c2)N(C)[C@H](C(=O)OC)C(C)C)C1 (stereo not given in full)
inactive: A498 > 100 µM | A549 62.5 µM | COLO 205 15.3 µM | HCC 2998 33.9 µM | HL-60 27.3 µM | HT-29 34 µM | Malme-3M 70.1 µM | NCI-H522 16.1 µM | SF-539 57 µM | SK-MEL-2 25.8 µM | SK-MEL-5 41.8 µM | SN12C 20.6 µM | SNB-75 55.6 µM | SR 23.6 µM | U-251 49.5 µM | UACC-62 37.1 µM | UO-31 61.7 µM

CC(=O)C1CCN(c2ccccc2)C1 (stereo not given)
inactive: A498 > 100 µM | A549 > 100 µM | HL-60 > 100 µM | HT-29 > 100 µM | NCI-H460 > 100 µM | NCI-H522 > 100 µM | SF-539 > 100 µM | SK-MEL-2 > 100 µM | SK-MEL-5 > 100 µM | SN12C > 100 µM | SNB-75 > 100 µM | SR > 100 µM | U-251 > 100 µM | UACC-62 > 100 µM | UO-31 > 100 µM

O=CC1=CCC2c3[nH]c4ccccc4c3CCN2C1 (stereo not given)
inactive: A549 > 396 µM | COLO 205 232 µM | HCC 2998 103 µM | HL-60 77.6 µM | HT-29 101 µM | Malme-3M 296 µM | NCI-H460 139 µM | NCI-H522 325 µM | RPMI-8226 112 µM | SF-539 175 µM | SK-MEL-2 90.8 µM | SK-MEL-5 114 µM | SN12C 102 µM | SR 105 µM | U-251 80 µM | UACC-62 93.8 µM

COC(=O)C1CCC2(C)[C@H](CCC3O[C@]32C)[C@@]1(C)CC(=O)c1ccoc1 (stereo not given in full)
inactive: A498 43 µM | A549 > 100 µM | COLO 205 > 100 µM | HCC 2998 > 100 µM | HL-60 75 µM | Malme-3M > 100 µM | NCI-H460 72.9 µM | NCI-H522 21.2 µM | RPMI-8226 52.7 µM | SF-539 > 100 µM | SK-MEL-5 66.1 µM | SN12C > 100 µM | SR 41.5 µM | U-251 36.6 µM | UACC-62 88.5 µM | UO-31 27.9 µM

COC(=O)CC(C(C(C)=O)C(=O)OCc1ccccc1)N1C(=O)OCC1c1ccccc1 (stereo not given)
inactive: A498 67.9 µM | A549 62.8 µM | COLO 205 > 100 µM | HCC 2998 > 100 µM | HL-60 91.6 µM | HT-29 > 100 µM | Malme-3M > 100 µM | NCI-H460 75.2 µM | RPMI-8226 51.5 µM | SF-539 > 100 µM | SK-MEL-2 > 100 µM | SK-MEL-5 47.8 µM | SN12C > 100 µM | SNB-75 15.5 µM | SR 74.5 µM | U-251 65.2 µM | UACC-62 44.2 µM | UO-31 44.4 µM

COC(=O)C1CC(=O)O[C@H]1c1ccc(OC)c(OC)c1 (stereo not given in full)
inactive: A498 > 100 µM | A549 > 100 µM | COLO 205 > 100 µM | HCC 2998 > 100 µM | HL-60 > 100 µM | HT-29 > 100 µM | Malme-3M > 100 µM | NCI-H460 > 100 µM | RPMI-8226 > 100 µM | SF-539 > 100 µM | SK-MEL-2 > 100 µM | SK-MEL-5 > 100 µM | SN12C > 100 µM | SNB-75 > 100 µM | SR > 100 µM | U-251 > 100 µM | UACC-62 > 100 µM | UO-31 > 100 µM
